# Reference: publication PMC4184797, “The Structure, Stability and Pheromone Binding of the Male Mouse Protein Sex Pheromone Darcin” (PLoS ONE, 2014)
# Assays:
# Format in all cases: binding
# MUP11 [1] = molecular target: T1, MUP11 (Mus musculus, UniProt P04938); test: 1H-15N HSQC NMR chemical shift perturbation
# T1 construct: N-terminal His6-tagged recombinant MUP11 (mature protein)
# T1 sequence (P04938 20-181): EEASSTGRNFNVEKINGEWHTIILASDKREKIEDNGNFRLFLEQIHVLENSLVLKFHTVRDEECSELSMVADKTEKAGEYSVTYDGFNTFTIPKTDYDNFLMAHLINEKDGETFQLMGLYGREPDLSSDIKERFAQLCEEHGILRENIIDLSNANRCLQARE
# darcin [2] = molecular target: T2, darcin (Mus musculus, UniProt Q5FW60); test: 1H-15N HSQC NMR chemical shift perturbation
# T2 construct: gene Mup20; N-terminal His6-tagged recombinant darcin (mature protein)
# T2 sequence (Q5FW60 20-181): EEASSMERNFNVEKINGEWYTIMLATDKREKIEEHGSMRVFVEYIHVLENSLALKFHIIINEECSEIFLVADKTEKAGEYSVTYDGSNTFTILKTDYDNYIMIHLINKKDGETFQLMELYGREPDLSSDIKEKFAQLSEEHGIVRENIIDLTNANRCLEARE
# MUP11 [3] = molecular target: T1, MUP11; test: ITC, one-site model, […] °C; also 1H-15N HSQC NMR titration
# darcin [4] = molecular target: T2, darcin; test: as above
Kd (MUP11 [3]) [nM],Kd (darcin [4]) [nM],Structure (SMILES),1H-15N HSQC NMR chemical shift perturbation (MUP11 [1]),1H-15N HSQC NMR chemical shift perturbation (darcin [2])
,,"CC1=CC(=O)c2ccccc2C1=O [K3, menadione]","The smaller ligands, K3 and SBT, bind to both darcin and MUP11 in the hydrophobic cavity of the beta barrel","The smaller ligands, K3 and SBT, bind to both darcin and MUP11 in the hydrophobic cavity of the beta barrel"
~2760,~173,"CCC(C)c1nccs1 (stereo not shown) [SBT, 2-sec-butyl-thiazole]",,
